Laboratory results from patent US12258328B2, “6-membered heteroaryl-containing aminopyridine compounds as EGFR inhibitors” (YUHAN CORPORATION, priority 2021, dated 2025).
Like-named read-outs stand apart in the source and are kept apart here.

Assays:
EGFR del19/T790M/C797S = EGFR del19/T790M/C797S (Homo sapiens, UniProt P00533, C797S/DEL746-750/T790M); assay: Biochemical EGFR kinase assay (Lance Ultra TR-FRET), triple mutant del19/T790M/C797S
Method in brief: (§1)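 Step 1: compound in kinase buffer, 0.003–10 μM. Step 2: kinase reaction 1 h at room temperature. Step 4: TR-FRET read at 615/665 nm; IC50 calculated.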

EGFR L858R/T790M/C797S = EGFR L858R/T790M/C797S (Homo sapiens, UniProt P00533, C797S/L858R/T790M); assay: Biochemical EGFR kinase assay (Lance Ultra TR-FRET), triple mutant L858R/T790M/C797S
Method in brief: as §1

EGFR del19/C797S = EGFR del19/C797S (Homo sapiens, UniProt P00533, C797S/DEL746-750); assay: Biochemical EGFR kinase assay (Lance Ultra TR-FRET), double mutant del19/C797S
Method in brief: as §1

EGFR L858R/C797S = EGFR L858R/C797S (Homo sapiens, UniProt P00533, C797S/L858R); assay: Biochemical EGFR kinase assay (Lance Ultra TR-FRET), double mutant L858R/C797S
Method in brief: as §1

EGFR wildtype = EGFR wildtype (Homo sapiens, UniProt P00533); assay: Biochemical EGFR kinase assay (Lance Ultra TR-FRET), wildtype
Method in brief: as §1

[1] = ATP at Km, read-out: IC50 del19/T790M/C797S, Km ATP
[2] = IC50 del19/T790M/C797S, 100 μM ATP
[3] = ATP at Km, read-out: IC50 L858R/T790M/C797S, Km ATP
[4] = IC50 L858R/T790M/C797S, 100 μM ATP
[5] = ATP at Km, read-out: IC50 del19/C797S, Km ATP
[6] = ATP at Km, read-out: IC50 L858R/C797S, Km ATP
[7] = ATP at Km, read-out: IC50 WT, Km ATP
[8] = Km ATP, read-out: IC50 del19/T790M/C797S (nM) Km ATP
[9] = Km ATP, read-out: IC50 L858R/T790M/C797S (nM) Km ATP
[10] = Km ATP, read-out: IC50 del19/C797S (nM) Km ATP
[11] = Km ATP, read-out: IC50 L858R/C797S (nM) Km ATP
[12] = Km ATP, read-out: IC50 WT (nM) Km ATP
[13] = IC50 del19/T790M/C797S (nM) 100 μM ATP, 100 μM ATP
[14] = IC50 L858R/T790M/C797S (nM) 100 μM ATP, 100 μM ATP
[15] = IC50 del19/C797S (nM) 100 μM ATP, 100 μM ATP
[16] = IC50 L858R/C797S (nM) 100 μM ATP, 100 μM ATP
[17] = IC50 WT (nM) 100 μM ATP, 100 μM ATP

EGFR wildtype, sequence (P00533 25-1210): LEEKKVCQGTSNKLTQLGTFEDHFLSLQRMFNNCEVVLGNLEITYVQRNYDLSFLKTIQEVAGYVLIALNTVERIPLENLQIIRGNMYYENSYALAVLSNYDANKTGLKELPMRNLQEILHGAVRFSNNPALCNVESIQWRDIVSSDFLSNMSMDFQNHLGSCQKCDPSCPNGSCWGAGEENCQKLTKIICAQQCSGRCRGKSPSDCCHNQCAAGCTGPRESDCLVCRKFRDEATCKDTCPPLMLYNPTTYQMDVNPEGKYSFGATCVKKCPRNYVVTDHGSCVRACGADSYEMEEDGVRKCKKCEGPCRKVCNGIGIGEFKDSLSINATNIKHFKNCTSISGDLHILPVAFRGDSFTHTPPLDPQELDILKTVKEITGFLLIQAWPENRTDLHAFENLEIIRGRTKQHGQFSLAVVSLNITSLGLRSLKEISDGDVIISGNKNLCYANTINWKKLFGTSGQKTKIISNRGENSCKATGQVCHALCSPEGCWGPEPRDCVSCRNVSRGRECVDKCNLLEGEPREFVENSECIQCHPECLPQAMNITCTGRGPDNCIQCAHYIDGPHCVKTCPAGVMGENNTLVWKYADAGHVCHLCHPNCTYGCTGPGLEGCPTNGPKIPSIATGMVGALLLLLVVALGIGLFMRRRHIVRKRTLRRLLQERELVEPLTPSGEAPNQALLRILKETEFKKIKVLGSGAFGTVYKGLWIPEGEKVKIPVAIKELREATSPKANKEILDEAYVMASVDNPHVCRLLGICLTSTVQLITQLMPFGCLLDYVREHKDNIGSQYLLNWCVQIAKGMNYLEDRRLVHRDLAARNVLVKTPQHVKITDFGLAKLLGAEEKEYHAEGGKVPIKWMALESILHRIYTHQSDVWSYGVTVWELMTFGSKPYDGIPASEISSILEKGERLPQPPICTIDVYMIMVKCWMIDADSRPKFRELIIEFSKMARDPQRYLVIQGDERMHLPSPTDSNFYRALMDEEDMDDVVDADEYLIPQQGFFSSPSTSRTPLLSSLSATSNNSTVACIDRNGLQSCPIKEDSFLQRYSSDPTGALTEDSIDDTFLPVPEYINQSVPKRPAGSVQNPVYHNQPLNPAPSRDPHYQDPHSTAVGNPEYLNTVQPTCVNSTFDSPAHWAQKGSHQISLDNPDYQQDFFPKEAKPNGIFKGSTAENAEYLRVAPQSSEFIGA
EGFR L858R/C797S, sequence (P00533 25-1210 C797S/L858R): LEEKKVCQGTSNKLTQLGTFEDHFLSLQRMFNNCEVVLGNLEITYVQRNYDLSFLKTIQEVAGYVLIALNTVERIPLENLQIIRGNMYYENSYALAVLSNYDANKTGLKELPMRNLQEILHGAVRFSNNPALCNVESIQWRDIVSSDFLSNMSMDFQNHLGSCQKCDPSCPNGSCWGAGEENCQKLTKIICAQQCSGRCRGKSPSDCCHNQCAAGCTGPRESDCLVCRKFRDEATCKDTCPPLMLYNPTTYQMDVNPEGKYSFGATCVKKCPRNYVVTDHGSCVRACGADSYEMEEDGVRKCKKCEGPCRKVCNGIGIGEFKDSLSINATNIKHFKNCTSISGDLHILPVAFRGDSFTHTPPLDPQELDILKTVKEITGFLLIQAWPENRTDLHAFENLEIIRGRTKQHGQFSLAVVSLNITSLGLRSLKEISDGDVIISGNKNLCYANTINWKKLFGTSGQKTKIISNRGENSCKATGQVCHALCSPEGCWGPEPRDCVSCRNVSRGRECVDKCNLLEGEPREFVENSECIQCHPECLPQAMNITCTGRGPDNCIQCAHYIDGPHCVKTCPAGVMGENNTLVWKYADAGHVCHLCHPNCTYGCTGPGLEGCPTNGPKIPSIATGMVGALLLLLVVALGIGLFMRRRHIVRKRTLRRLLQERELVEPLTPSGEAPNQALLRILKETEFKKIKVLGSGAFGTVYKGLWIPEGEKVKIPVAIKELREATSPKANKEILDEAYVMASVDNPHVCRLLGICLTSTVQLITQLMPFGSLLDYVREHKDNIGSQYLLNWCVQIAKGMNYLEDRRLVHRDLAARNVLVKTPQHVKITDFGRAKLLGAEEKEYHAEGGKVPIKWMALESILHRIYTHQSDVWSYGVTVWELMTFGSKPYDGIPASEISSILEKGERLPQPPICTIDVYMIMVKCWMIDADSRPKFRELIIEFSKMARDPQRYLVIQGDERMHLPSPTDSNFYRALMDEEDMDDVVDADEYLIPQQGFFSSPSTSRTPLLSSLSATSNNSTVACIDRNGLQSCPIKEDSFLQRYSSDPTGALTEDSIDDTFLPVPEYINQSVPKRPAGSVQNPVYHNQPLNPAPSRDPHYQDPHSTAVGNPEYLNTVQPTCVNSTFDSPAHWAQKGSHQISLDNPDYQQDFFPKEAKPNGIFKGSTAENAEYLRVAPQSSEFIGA
EGFR L858R/T790M/C797S, sequence (P00533 25-1210 T790M/C797S/L858R): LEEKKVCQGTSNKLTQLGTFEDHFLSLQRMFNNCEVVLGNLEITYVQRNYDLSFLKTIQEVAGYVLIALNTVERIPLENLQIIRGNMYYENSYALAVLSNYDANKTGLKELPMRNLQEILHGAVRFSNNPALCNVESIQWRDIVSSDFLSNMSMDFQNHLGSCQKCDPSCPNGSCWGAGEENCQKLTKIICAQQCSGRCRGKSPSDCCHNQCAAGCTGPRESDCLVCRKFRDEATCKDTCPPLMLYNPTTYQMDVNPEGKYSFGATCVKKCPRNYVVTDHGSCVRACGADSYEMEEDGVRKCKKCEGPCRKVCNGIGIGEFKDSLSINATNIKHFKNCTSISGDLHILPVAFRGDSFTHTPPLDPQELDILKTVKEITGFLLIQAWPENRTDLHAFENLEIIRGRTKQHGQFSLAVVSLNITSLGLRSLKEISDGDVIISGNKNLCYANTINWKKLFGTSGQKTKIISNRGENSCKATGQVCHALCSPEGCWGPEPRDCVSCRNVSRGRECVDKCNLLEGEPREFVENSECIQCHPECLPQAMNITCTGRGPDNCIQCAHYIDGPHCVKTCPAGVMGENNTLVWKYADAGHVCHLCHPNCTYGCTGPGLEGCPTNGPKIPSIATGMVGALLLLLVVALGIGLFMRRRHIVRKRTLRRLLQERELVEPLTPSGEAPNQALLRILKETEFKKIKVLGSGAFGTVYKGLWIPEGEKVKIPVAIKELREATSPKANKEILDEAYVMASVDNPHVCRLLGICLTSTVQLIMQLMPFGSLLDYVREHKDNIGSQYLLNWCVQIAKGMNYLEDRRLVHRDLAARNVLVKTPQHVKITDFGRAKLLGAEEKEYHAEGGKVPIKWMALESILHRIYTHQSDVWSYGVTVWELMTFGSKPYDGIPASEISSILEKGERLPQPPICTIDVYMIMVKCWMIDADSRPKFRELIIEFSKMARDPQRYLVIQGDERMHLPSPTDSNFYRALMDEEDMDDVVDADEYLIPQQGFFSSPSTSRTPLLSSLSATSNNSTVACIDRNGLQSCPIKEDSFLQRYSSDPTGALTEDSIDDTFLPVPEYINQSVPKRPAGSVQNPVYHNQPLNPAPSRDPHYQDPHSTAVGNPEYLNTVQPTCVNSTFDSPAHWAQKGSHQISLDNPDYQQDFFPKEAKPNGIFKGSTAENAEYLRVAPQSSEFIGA
EGFR del19/C797S, sequence (P00533 with tags, fused parts or gaps DEL746-750/C797S): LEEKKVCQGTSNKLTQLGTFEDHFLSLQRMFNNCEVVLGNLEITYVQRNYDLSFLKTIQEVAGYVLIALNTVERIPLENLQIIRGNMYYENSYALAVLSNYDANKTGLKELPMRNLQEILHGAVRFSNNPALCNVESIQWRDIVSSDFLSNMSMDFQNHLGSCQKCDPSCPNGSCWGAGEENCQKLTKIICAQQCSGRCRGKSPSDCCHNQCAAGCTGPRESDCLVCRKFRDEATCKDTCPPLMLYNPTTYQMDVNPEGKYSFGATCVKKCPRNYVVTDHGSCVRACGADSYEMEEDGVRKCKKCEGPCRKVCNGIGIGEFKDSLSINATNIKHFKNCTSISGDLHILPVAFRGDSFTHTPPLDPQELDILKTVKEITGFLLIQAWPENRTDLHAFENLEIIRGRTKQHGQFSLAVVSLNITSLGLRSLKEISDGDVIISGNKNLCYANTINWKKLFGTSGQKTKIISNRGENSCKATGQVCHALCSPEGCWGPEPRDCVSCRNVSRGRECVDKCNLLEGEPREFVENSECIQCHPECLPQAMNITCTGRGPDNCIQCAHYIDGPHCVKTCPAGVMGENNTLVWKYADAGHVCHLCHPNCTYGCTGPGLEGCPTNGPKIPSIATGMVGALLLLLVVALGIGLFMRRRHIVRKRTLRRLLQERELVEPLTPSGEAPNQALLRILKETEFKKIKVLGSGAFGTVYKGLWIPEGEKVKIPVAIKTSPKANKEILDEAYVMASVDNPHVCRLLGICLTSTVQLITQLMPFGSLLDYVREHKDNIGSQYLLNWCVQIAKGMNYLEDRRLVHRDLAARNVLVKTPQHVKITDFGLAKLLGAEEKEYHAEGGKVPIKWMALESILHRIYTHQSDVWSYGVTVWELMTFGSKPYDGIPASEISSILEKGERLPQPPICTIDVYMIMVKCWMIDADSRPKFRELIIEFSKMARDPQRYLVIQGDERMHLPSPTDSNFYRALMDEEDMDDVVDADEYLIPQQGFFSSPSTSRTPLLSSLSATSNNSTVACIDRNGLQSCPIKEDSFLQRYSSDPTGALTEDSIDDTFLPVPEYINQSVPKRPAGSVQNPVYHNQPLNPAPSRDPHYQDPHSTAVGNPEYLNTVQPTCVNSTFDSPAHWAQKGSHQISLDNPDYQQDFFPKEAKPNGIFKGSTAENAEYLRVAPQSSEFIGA

| SMILES | IC50 (EGFR del19/T790M/C797S; [1]) [nM] | IC50 (EGFR del19/T790M/C797S; [2]) [nM] | IC50 (EGFR L858R/T790M/C797S; [3]) [nM] | IC50 (EGFR L858R/T790M/C797S; [4]) [nM] | IC50 (EGFR del19/C797S; [5]) [nM] | IC50 (EGFR del19/C797S; IC50 del19/C797S, 100 μM ATP) [nM] | IC50 (EGFR L858R/C797S; [6]) [nM] | IC50 (EGFR L858R/C797S; IC50 L858R/C797S, 100 μM ATP) [nM] | IC50 (EGFR wildtype; [7]) [nM] | IC50 (EGFR wildtype; IC50 WT, 100 μM ATP) [nM] | IC50 (EGFR del19/T790M/C797S; [8]) [nM] | IC50 (EGFR L858R/T790M/C797S; [9]) [nM] | IC50 (EGFR del19/C797S; [10]) [nM] | IC50 (EGFR L858R/C797S; [11]) [nM] | IC50 (EGFR wildtype; [12]) [nM] | IC50 (EGFR del19/T790M/C797S; [13]) [nM] | IC50 (EGFR L858R/T790M/C797S; [14]) [nM] | IC50 (EGFR del19/C797S; [15]) [nM] | IC50 (EGFR L858R/C797S; [16]) [nM] | IC50 (EGFR wildtype; [17]) [nM] |
| --- | --- | --- | --- | --- | --- | --- | --- | --- | --- | --- | --- | --- | --- | --- | --- | --- | --- | --- | --- | --- |
| CN(C)C[C@H]1CC[C@@H](Nc2cc(Nc3ccnc(-c4cnn(S(=O)(=O)C5CC5)c4)n3)ncc2-c2ccc(C(C)(C)O)cn2)CC1 [Example 171, 2-(6′-((2-(1-(Cyclopropylsulfonyl)-1H-pyrazol-4-yl)pyrimidin-4-yl)amino)-4′-(((1s,4s)-4-((dimethylamino)methyl)cyclohexyl)amino)-[2,3′-bipyridin]-5-yl)propan-2-ol] | 0.3 | 0.5 | 0.1 | 0.2 | 0.1 | 0.3 | 0.2 | 0.3 | 0.2 | 67.9 | – | – | – | – | – | – | – | – | – | – |
| CN1CCC(Oc2ccc(-c3cnc(Nc4ccnc(-c5cnn(CC(F)F)c5)n4)cc3NC3CCCC(F)C3)nc2)CC1 (stereo not shown) [Example 141, N^6′-(2-(1-(2,2-Difluoroethyl)-1H-pyrazol-4-yl)pyrimidin-4-yl)-N^4′-(3-fluorocyclohexyl)-5-((1-methylpiperidin-4-yl)oxy)-[2,3′-bipyridine]-4′,6′-diamine] | – | – | – | – | – | – | – | – | – | – | 0.03 | 0.1 | 1.2 | 0.8 | 12.4 | – | – | – | – | – |
| C[C@]1(O)CC[C@@H](Nc2cc(Nc3ccnc(-c4cnn(S(=O)(=O)C5CC5)c4)n3)ncc2-c2ccc(N3CCC(O)CC3)cn2)CC1 [Example 49, 1-(6′-((2-(1-(Cyclopropylsulfonyl)-1H-pyrazol-4-yl)pyrimidin-4-yl)amino)-4′-(((1s,4s)-4-hydroxy-4-methylcyclohexyl)amino)-[2,3′-bipyridin]-5-yl) piperidin-4-ol] | – | – | – | – | – | – | – | – | – | – | 0.3 | 0.1 | 0.5 | 0.3 | 0.5 | 0.3 | 0.3 | 0.8 | 2.4 | 294 |
| CN1CCC(Oc2ccc(-c3cnc(Nc4ccnc(-c5cnn(S(=O)(=O)C6CC6)c5)n4)cc3N[C@H]3CC[C@@H](F)CC3)nc2)CC1 [Example 132, N^6′-(2-(1-(Cyclopropylsulfonyl)-1H-pyrazol-4-yl)pyrimidin-4-yl)-N^4′-((1s,4s)-4-fluorocyclohexyl)-5-((1-methylpiperidin-4-yl)oxy)-[2,3′-bipyridine]-4′,6′-diamine] | – | – | – | – | – | – | – | – | – | – | 0.4 | 0.4 | 0.4 | 0.3 | 0.8 | – | – | – | – | – |
| CC(C)(O)[C@H]1CC[C@@H](Nc2cc(Nc3ccnc(-c4cnn(S(=O)(=O)C5CC5)c4)n3)ncc2-c2cc(CN3CCC(F)(F)CC3)ccn2)CC1 [Example 114, 2-((1s,4s)-4-((6′-((2-(1-(Cyclopropylsulfonyl)-1H-pyrazol-4-yl)pyrimidin-4-yl)amino)-4-((4,4-difluoropiperidin-1-yl)methyl)-[2,3′-bipyridin]-4′-yl)amino)cyclohexyl)propan-2-ol] | – | – | – | – | – | – | – | – | – | – | 8.5 | 2.8 | 27.1 | 15.7 | 46.8 | 11.2 | 4.5 | 29.9 | 33.7 | 653 |
| CC(C)(O)[C@H]1CC[C@@H](Nc2cc(Nc3ccnc(-c4cnn(S(=O)(=O)C5CC5)c4)n3)ncc2-c2ccc(CN3CCC(O)CC3)cn2)CC1 [Example 98, 1-((6′-((2-(1-(Cyclopropylsulfonyl)-1H-pyrazol-4-yl)pyrimidin-4-yl)amino)-4′-(((1s,4s)-4-(2-hydroxypropan-2-yl)cyclohexyl)amino)-[2,3′-bipyridin]-5-yl)methyl) piperidin-4-ol] | – | – | – | – | – | – | – | – | – | – | 0.4 | 0.1 | – | – | – | 0.5 | 0.2 | 0.3 | 1.9 | 152 |
| CC(O)(c1ccc(-c2cnc(Nc3ccnc(-c4cnn(S(=O)(=O)C5CC5)c4)n3)cc2NC2CCC(F)CC2)nc1)C(F)(F)F (stereo not shown) [Example 265, 2-(6′-((2-(1-(Cyclopropylsulfonyl)-1H-pyrazol-4-yl)pyrimidin-4-yl)amino)-4′-(((1s,4s)-4-fluorocyclohexyl)amino)-[2,3′-bipyridin]-5-yl)-1,1,1-trifluoropropan-2-ol] | 31 | – | 22 | – | 16.9 | – | 85.3 | – | 365 | – | – | – | – | – | – | – | – | – | – | – |
| Cc1ccc(-c2cnc(Nc3ccnc(-c4cnn(S(=O)(=O)C5CC5)c4)n3)cc2N[C@H]2CC[C@@H](C(C)(C)O)CC2)nc1F [Example 180, 2-((1s,4s)-4-((6′-((2-(1-(Cyclopropylsulfonyl)-1H-pyrazol-4-yl)pyrimidin-4-yl)amino)-6-fluoro-5-methyl-[2,3′-bipyridin]-4′-yl)amino)cyclohexyl)propan-2-ol] | 5.8 | 8.5 | 2.5 | 9.1 | 6 | 30.7 | 12 | 67.7 | 47.5 | > 10000 | – | – | – | – | – | – | – | – | – | – |
| C[C@]1(O)CC[C@@H](Nc2cc(Nc3ccnc(-c4cnn(S(=O)(=O)C5CC5)c4)n3)ncc2-c2cc(N3CCC(F)(F)CC3)ccn2)CC1 [Example 102, (1s,4s)-4-((6′-((2-(1-(Cyclopropylsulfonyl)-1H-pyrazol-4-yl)pyrimidin-4-yl)amino)-4-(4,4-difluoropiperidin-1-yl)-[2,3′-bipyridin]-4′-yl)amino)-1-methylcyclohexan-1-ol] | – | – | – | – | – | – | – | – | – | – | 2.8 | 0.7 | 4.6 | 8.2 | 21.3 | – | 1 | 9.1 | 29.9 | > 10000 |
| CN(C)CCOc1cnc(-c2cnc(Nc3ccnc(-c4cnn(S(=O)(=O)C5CC5)c4)n3)cc2N[C@H]2CC[C@@H](C(C)(C)O)CC2)cn1 [Example 117, 2-((1s,4s)-4-((2-((2-(1-(Cyclopropylsulfonyl)-1H-pyrazol-4-yl)pyrimidin-4-yl)amino)-5-(5-(2-(dimethylamino)ethoxy)pyrazin-2-yl)pyridin-4-yl)amino)cyclohexyl)propan-2-ol] | – | – | – | – | – | – | – | – | – | – | 0.2 | 0.1 | 0.3 | 0.2 | 1.9 | 0.4 | 0.1 | 0.5 | 0.5 | 6500 |
| CN1CCN(S(=O)(=O)c2ccc(-c3cnc(Nc4ccnc(-c5cnn(S(=O)(=O)C6CC6)c5)n4)cc3N[C@H]3CC[C@@H](CO)CC3)nc2)CC1 [Example 189, ((1s,4s)-4-((6′-((2-(1-(Cyclopropylsulfonyl)-1H-pyrazol-4-yl)pyrimidin-4-yl)amino)-5-((4-methylpiperazin-1-yl)sulfonyl)-[2,3′-bipyridin]-4′-yl)amino)cyclohexyl)methanol] | – | 1.4 | – | 0.8 | 2.2 | 1.7 | 0.9 | 7.9 | 6.9 | 1770 | – | – | – | – | – | – | – | – | – | – |
| O=S(=O)(C1CC1)n1cc(-c2nccc(Nc3cc(N[C@H]4CC[C@@H](NCCF)CC4)c(-c4cccc(F)n4)cn3)n2)cn1 [Example 273, N^6′-(2-(1-(Cyclopropylsulfonyl)-1H-pyrazol-4-yl)pyrimidin-4-yl)-6-fluoro-N^4′-((1s,4s)-4-((2-fluoroethyl)amino)cyclohexyl)-[2,3′-bipyridine]-4′,6′-diamine] | – | 0.2 | – | 0.3 | – | 1 | – | 8.6 | – | 2230 | – | – | – | – | – | – | – | – | – | – |
